# Measured values taken from patent US20240327382A1 (ALMAC DISCOVERY LIMITED, priority 2021, published 2024).
# Counter-ions that a name gives are not always drawn.
# Biological target: T1, Full-length USP19 (Homo sapiens, UniProt O94966)
# T1 construct: Full-length USP19 was purchased from Boston Biochem (E-576); purchased Boston Biochem E-576
# T1 sequence (O94966 1-1318): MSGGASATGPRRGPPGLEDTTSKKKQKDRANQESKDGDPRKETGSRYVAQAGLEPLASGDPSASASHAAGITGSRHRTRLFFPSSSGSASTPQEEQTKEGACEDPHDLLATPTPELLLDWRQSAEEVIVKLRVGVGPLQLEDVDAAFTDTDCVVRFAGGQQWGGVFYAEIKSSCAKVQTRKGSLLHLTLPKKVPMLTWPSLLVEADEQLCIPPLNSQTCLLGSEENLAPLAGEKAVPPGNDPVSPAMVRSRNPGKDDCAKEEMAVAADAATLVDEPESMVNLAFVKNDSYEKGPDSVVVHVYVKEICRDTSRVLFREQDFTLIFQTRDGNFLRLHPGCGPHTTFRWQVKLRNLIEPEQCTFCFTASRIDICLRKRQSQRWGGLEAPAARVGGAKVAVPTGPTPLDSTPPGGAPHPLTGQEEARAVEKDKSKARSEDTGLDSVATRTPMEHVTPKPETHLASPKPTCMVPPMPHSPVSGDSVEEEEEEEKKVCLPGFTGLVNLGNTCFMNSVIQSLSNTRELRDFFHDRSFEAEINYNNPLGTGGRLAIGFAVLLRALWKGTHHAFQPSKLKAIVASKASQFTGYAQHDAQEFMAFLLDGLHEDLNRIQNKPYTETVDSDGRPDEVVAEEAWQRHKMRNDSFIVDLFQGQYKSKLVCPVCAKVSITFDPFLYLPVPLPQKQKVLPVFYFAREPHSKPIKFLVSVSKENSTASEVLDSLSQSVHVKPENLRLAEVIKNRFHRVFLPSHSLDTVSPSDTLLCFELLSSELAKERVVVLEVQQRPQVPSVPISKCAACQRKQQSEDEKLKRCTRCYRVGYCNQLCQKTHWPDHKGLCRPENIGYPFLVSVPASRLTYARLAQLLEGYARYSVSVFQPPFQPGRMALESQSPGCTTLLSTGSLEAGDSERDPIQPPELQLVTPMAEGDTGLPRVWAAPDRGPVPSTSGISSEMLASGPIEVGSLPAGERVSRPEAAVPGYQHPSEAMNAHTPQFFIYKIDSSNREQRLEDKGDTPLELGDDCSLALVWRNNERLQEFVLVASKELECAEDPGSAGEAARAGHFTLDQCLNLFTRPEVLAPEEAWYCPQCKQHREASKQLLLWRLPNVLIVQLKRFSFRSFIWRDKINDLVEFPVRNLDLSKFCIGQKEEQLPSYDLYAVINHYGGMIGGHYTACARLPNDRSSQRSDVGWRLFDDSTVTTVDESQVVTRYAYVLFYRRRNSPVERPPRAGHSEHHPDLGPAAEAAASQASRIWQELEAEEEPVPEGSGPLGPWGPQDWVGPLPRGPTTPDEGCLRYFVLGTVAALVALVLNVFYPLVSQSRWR
# Test: USP19 fluorescence polarisation (FP) assay, Ubiquitin-Lys-TAMRA substrate
# Format: biochemical
# Details: average of at least two duplicate experiments
# How it was run: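 Fluorescence polarisation (excitation 530 nm, parallel and perpendicular emission at 575 nm) was recorded every 15 min for 90 min after adding the ubiquitin-Lys-TAMRA isopeptide (500 nM as dispensed). Beforehand, the full-length enzyme (2.5 nM as dispensed) sat 30 min at RT with compound diluted from 200 μM to 2 μM in HEPES pH 7.4 buffer with 150 mM NaCl, 5 mM DTT, 0.05% BSA and 0.05% CHAPS. Values normalised to uninhibited wells gave IC50s by non-linear fitting, each the mean of two or more duplicate runs.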
row,IC50,SMILES
1,< 10 nM,"CN[C@@H]1CCN(C(=O)N2CC[C@@H](Cn3ccc(-c4ccccc4)cc3=O)C3(CCCC3)C2)[C@H](c2cc(F)ccc2F)C1 [Example 91, 1-(((R)-7-((2S,4R)-2-(2,5-Difluorophenyl)-4-(methylamino)piperidine-1-carbonyl)-7-azaspiro[4.5]decan-10-yl)methyl)-4-phenylpyridin-2(1H)-one]"
2,< 10 nM,"CC1(C)CN(C(=O)N2CC[C@@H](N)C[C@H]2c2ccccc2)CC[C@H]1Cn1ccc(-c2ccccc2)cc1=O [Example 69, 1-(((R)-1-((2S,4R)-4-Amino-2-phenylpiperidine-1-carbonyl)-3,3-dimethylpiperidin-4-yl)methyl)-4-phenylpyridin-2(1H)-one]"
3,10 to 100 nM,"O=C(N1CC[C@@H](Cn2ccc(Cl)cc2=O)C2(CCCC2)C1)N1CC[C@@H](NC2CC(F)(F)C2)C[C@H]1c1cc(F)ccc1F [Example 186, 4-Chloro-1-(((R)-7-((2S,4R)-4-((3,3-difluorocyclobutyl)amino)-2-(2,5-difluorophenyl)piperidine-1-carbonyl)-7-azaspiro[4.5]decan-10-yl)methyl)pyridin-2(1H)-one]"
4,10 to 100 nM,"C[C@H]1CN(C(=O)N2CC[C@@H](Cn3cnc4ccc(F)cc4c3=O)C3(CCCC3)C2)[C@H](c2cc(F)ccc2F)CO1 [Example 200, 3-(((R)-7-((2S,5R)-5-(2,5-Difluorophenyl)-2-methylmorpholine-4-carbonyl)-7-azaspiro[4.5]decan-10-yl)methyl)-6-fluoroquinazolin-4(3H)-one]"
5,1000 to 20000 nM,"O=C(N1CC[C@H](Cn2ccc(-c3ccccc3)cc2=O)C2(CCCC2)C1)N1CCNC[C@H]1c1ccccc1 (single isomer, unassigned) [Example 15]"
6,< 10 nM,"N[C@@H]1CCN(C(=O)N2CCC(Cn3ccc(C(F)F)cc3=O)C3(CCCC3)C2)[C@H](c2ccccc2)C1 (stereo partly drawn) [Example 38, 1-((7-((2S,4R)-4-Amino-2-phenylpiperidine-1-carbonyl)-7-azaspiro[4.5]decan-10-yl)methyl)-4-(difluoromethyl) pyridin-2(1H)-one]"
7,10 to 100 nM,"O=C(N[C@@H]1CCN(C(=O)N2CC[C@@H](Cn3ccc(-c4ccccc4)cc3=O)C3(CCCC3)C2)[C@H](c2ccccc2)C1)C1CC1 [Example 96, N-((2S,4R)-1-((R)-10-((2-Oxo-4-phenylpyridin-1(2H)-yl)methyl)-7-azaspiro[4.5]decane-7-carbonyl)-2-phenylpiperidin-4-yl)cyclopropanecarboxamide]"
8,< 10 nM,"CN[C@@H]1CCN(C(=O)N2CC[C@@H](Cn3cnc(-c4ccccc4C)cc3=O)C3(CCCC3)C2)[C@H](c2cc(F)cc(F)c2)C1 [Example 146, 3-(((R)-7-((2S,4R)-2-(3,5-Difluorophenyl)-4-(methylamino)piperidine-1-carbonyl)-7-azaspiro[4.5]decan-10-yl)methyl)-6-(o-tolyl)pyrimidin-4(3H)-one]"
9,10 to 100 nM,"O=C(N1CC[C@@H](Cn2ccc(-c3ccccc3)cc2=O)C2(CCCC2)C1)N1CC[C@@H](NC2CS(=O)(=O)C2)C[C@H]1c1ccccc1 [Example 50, 1-(((R)-7-((2S,4R)-4-((1,1-Dioxidothietan-3-yl)amino)-2-phenylpiperidine-1-carbonyl)-7-azaspiro[4.5]decan-10-yl)methyl)-4-phenylpyridin-2(1H)-one]"
10,< 10 nM,"O=C(N1CC[C@@H](Cn2cnc(-c3ccccc3)cc2=O)C2(CCCC2)C1)N1CC[C@@H](NC2CC2)C[C@H]1c1ccccc1 [Example 79, 3-(((R)-7-((2S,4R)-4-(Cyclopropylamino)-2-phenylpiperidine-1-carbonyl)-7-azaspiro[4.5]decan-10-yl)methyl)-6-phenylpyrimidin-4(3H)-one]"
11,< 10 nM,"CC(=O)N[C@@H]1CCN(C(=O)N2CC[C@@H](Cn3cnc4ccc(F)cc4c3=O)C3(CCCC3)C2)[C@H](c2cc(F)ccc2F)C1 [Example 172, N-((2S,4R)-2-(2,5-Difluorophenyl)-1-((R)-10-((6-fluoro-4-oxoquinazolin-3(4H)-yl)methyl)-7-azaspiro[4.5]decane-7-carbonyl)piperidin-4-yl)acetamide]"
12,100 to 1000 nM,"CN(C)[C@@H]1CCN(C(=O)N2CC[C@@H](Cn3cnc4ccc(F)cc4c3=O)C3(CCCC3)C2)[C@H](c2cc(F)cc(F)c2)C1 [Example 184, 3-(((R)-7-((2S,4R)-2-(3,5-Difluorophenyl)-4-(dimethylamino)piperidine-1-carbonyl)-7-azaspiro[4.5]decan-10-yl)methyl)-6-fluoroquinazolin-4(3H)-one hydrochloride]"
13,< 10 nM,"Cc1ccccc1-c1cc(=O)n(C[C@@H]2CCN(C(=O)N3CC[C@@H](N)C[C@H]3c3ccccc3)CC23CCCC3)cn1 [Example 77, 3-(((R)-7-((2,4R)-4-Amino-2-phenylpiperidine-1-carbonyl)-7-azaspiro[4.5]decan-10-yl)methyl)-6-(o-tolyl)pyrimidin-4(3H)-one]"
14,10 to 100 nM,"N[C@@H]1CCN(C(=O)N2CCC(Cn3cnc(C(F)F)cc3=O)C3(CCCC3)C2)[C@H](c2ccccc2)C1 (stereo partly drawn) [Example 28, 3-((7-((2S,4R)-4-Amino-2-phenylpiperidine-1-carbonyl)-7-azaspiro[4.5]decan-10-yl)methyl)-6-(difluoromethyl) pyrimidin-4(3H)-one]"
15,< 10 nM,"N[C@@H]1CCN(C(=O)N2CCC(Cn3cnc4c(cnn4C4CC4)c3=O)C3(CCCC3)C2)[C@H](c2ccccc2)C1 (stereo partly drawn) [Example 35, 5-((7-((2S,4R)-4-Amino-2-phenylpiperidine-1-carbonyl)-7-azaspiro[4.5]decan-10-yl)methyl)-1-cyclopropyl-1,5-dihydro-4H-pyrazolo[3,4-d] pyrimidin-4-one]"
16,< 10 nM,"COc1ccccc1-c1cc(=O)n(C[C@@H]2CCN(C(=O)N3CCNC[C@H]3c3cccc(F)c3)CC23CCCC3)cn1 [Example 115, 3-(((R)-7-((R)-2-(3-Fluorophenyl)piperazine-1-carbonyl)-7-azaspiro[4.5]decan-10-yl)methyl)-6-(2-methoxyphenyl)pyrimidin-4(3H)-one]"
17,100 to 1000 nM,"O=C(N1CCC(Cn2cnc(-c3ccccc3)cc2=O)C2(CCCC2)C1)N1CCC[C@H]1c1ccccc1 (stereo partly drawn) [Example 8, 6-Phenyl-3-((7-((S)-2-phenylpyrrolidine-1-carbonyl)-7-azaspiro[4.5]decan-10-yl)methyl)pyrimidin-4(3H)-one]"
18,< 10 nM,"CN[C@@H]1CCN(C(=O)N2CC[C@@H](Cn3cnc(-c4ccccc4C)cc3=O)C3(CCCC3)C2)[C@H](c2ccc(F)c(F)c2)C1 [Example 139, 3-(((R)-7-((2S,4R)-2-(3,4-Difluorophenyl)-4-(methylamino)piperidine-1-carbonyl)-7-azaspiro[4.5]decan-10-yl)methyl)-6-(0-tolyl)pyrimidin-4(3H)-one]"
19,< 10 nM,"COc1ccccc1-c1cc(=O)n(C[C@@H]2CCN(C(=O)N3CC[C@@H](N)C[C@H]3c3ccccc3)CC23CCCC3)cn1 [Example 92, 3-(((R)-7-((2S,4R)-4-Amino-2-phenylpiperidine-1-carbonyl)-7-azaspiro[4.5]decan-10-yl)methyl)-6-(2-methoxyphenyl)pyrimidin-4(3H)-one]"
20,< 10 nM,"Cc1ccccc1-c1ccn(C[C@@H]2CCN(C(=O)N3CC[C@@H](N)C[C@H]3c3ccccc3)CC23CCCC3)c(=O)c1 [Example 60, 1-(((R)-7-((2S,4R)-4-Amino-2-phenylpiperidine-1-carbonyl)-7-azaspiro[4.5]decan-10-yl)methyl)-4-(o-tolyl)pyridin-2(1H)-one]"
21,< 10 nM,"CN[C@@H]1CCN(C(=O)N2CC[C@@H](Cn3cnc(-c4ccccc4)cc3=O)C3(CCCC3)C2)[C@H](c2ccc(F)cc2F)C1 [Example 94, 3-(((R)-7-((2S,4R)-2-(2,4-Difluorophenyl)-4-(methylamino)piperidine-1-carbonyl)-7-azaspiro[4.5]decan-10-yl)methyl)-6-phenylpyrimidin-4(3H)-one]"
